Reference: patent US8829007B2 (priority 2009, dated 2014)
Where two headings read alike, the source gives them in different places.

Columns and labels:
[1] = test system: A/PR/8/34 influenza virus; assay: microbe, parasite or virus in culture; format: cell-based
[2] = test system: influenza A virus (A/PR/8/34); assay: microbe, parasite or virus in culture; format: cell-based
[3] = mean all, A/PR/8/34 influenza virus in MDCK cells, bDNA assay, read-out: EC50
[4] = mean all, A/PR/8/34 infected MDCK cells, CPE assay, read-out: IC50
[5] = Influenza A virus, PR/8, MDCK, mean all, A/PR/8/34 influenza virus in MDCK cells, bDNA assay, read-out: EC50
[6] = Influenza A virus, PR/8, MDCK, mean all, A/PR/8/34 infected MDCK cells, CPE assay, read-out: IC50
[7] = Influenza A virus, PR/8, MDCK, MDCK cells infected with A/PR/8/34, replication of influenza virus (viral RNA, bDNA), class symbols, read-out: EC50 (mean all)
[8] = Influenza A virus, PR/8, MDCK, MDCK cells infected with A/PR/8/34, survival of infected cells, class symbols, read-out: IC50 (mean all)

**Q.** What does the source list for `NC1CCCCC1Nc1nc(-c2c[nH]c3ncc(Cl)cc23)ncc1F` (stereo not drawn) [Compound 414]?
**A.** EC50 [1, 3]: < 5 µM; IC50 [2, 4]: < 5 µM

**Q.** For `O=C1NCCC[C@@H]1Nc1nc(-c2c[nH]c3ncc(Cl)cc23)ncc1F` [Compound 416], which EC50 [1, 5] is on record?
**A.** < 5 µM

**Q.** What about the IC50 [2, 6] of the same molecule?
**A.** < 5 µM

**Q.** What does the source list for `O=C1NCCCC[C@@H]1Nc1nc(-c2c[nH]c3ncc(Cl)cc23)ncc1F` [Compound 417]?
**A.** EC50 [1, 5]: < 5 µM; IC50 [2, 6]: < 5 µM

**Q.** For `CCCCS(=O)(=O)N1CCCC(Nc2ccnc(-c3c[nH]c4ncc(Cl)cc34)n2)C1` (stereo not drawn) [Compound 419], which EC50 [1, 3] is on record?
**A.** < 5 µM

**Q.** And the IC50 [2, 4]?
**A.** < 5 µM

**Q.** How did the EC50 [1, 5] turn out when `COC(=O)N[C@H]1CCCC[C@@H]1Nc1nc(-c2c[nH]c3ncc(Cl)cc23)ncc1F` [Compound 425, Methyl N-[(1S,2S)-2-[[2-(5-chloro-1H-pyrrolo[2,3-b]pyridin-3-yl)-5-fluoro-pyrimidin-4-yl]amino]cyclohexyl]carbamate] was run?
**A.** < 5 µM

**Q.** And the IC50 [2, 6]?
**A.** < 5 µM

**Q.** Which results are given for `CS(=O)(=O)N[C@H]1CCCC[C@@H]1Nc1nc(-c2c[nH]c3ncc(Cl)cc23)ncc1F` [Compound 428, N-[(1S,2S)-2-[[2-(5-chloro-1H-pyrrolo[2,3-b]pyridin-3-yl)-5-fluoro-pyrimidin-4-yl]amino]cyclohexyl]methanesulfonamide]?
**A.** EC50 [1, 5]: < 5 µM; IC50 ([2]; Influenza A virus, PR/8, MDCK, exemplary values in text, survival of A/PR/8/34 infected cells, read-out: IC50): 0.03 µM; IC50 [2, 6]: < 5 µM

**Q.** Which results are given for `CC(=O)N[C@H]1CCCC[C@@H]1Nc1nc(-c2c[nH]c3ncc(Cl)cc23)ncc1F` [Compound 433, N-[(1s, 2S)-2-[[2-(5-chloro-1H-pyrrolo[2,3-b]pyridin-3-yl)-5-fluoro-pyrimidin-4-yl]amino]cyclohexyl]acetamide]?
**A.** EC50 [1, 5]: < 5 µM; IC50 [2, 6]: < 5 µM

**Q.** With `CC(=O)N1CCC[C@H](Nc2nc(-c3c[nH]c4ncc(Cl)cc34)ncc2F)C1` [Compound 434] as the molecule, how does the EC50 [1, 5] read?
**A.** < 5 µM

**Q.** And the IC50 [2, 6]?
**A.** < 5 µM

**Q.** With `CCC(=O)N1CCC[C@H](Nc2nc(-c3c[nH]c4ncc(Cl)cc34)ncc2F)C1` [Compound 435] as the molecule, how does the EC50 [1, 5] read?
**A.** < 5 µM

**Q.** What about the IC50 [2, 6] of the same molecule?
**A.** < 5 µM

**Q.** What does the source list for `CCNC(=O)N1CCC[C@H](Nc2nc(-c3c[nH]c4ncc(Cl)cc34)ncc2F)C1` [Compound 438]?
**A.** EC50 [1, 5]: < 5 µM; IC50 [2, 6]: < 5 µM

**Q.** For `CC(C)NC(=O)N1CCC[C@H](Nc2nc(-c3c[nH]c4ncc(Cl)cc34)ncc2F)C1` [Compound 439], which EC50 [1, 5] is on record?
**A.** < 5 µM

**Q.** And the IC50 [2, 6]?
**A.** < 5 µM

**Q.** Which results are given for `COC(=O)N1CCC[C@H](Nc2nc(-c3c[nH]c4ncc(Cl)cc34)ncc2F)C1` [Compound 440]?
**A.** EC50 [1, 5]: < 5 µM; IC50 [2, 6]: < 5 µM

**Q.** Which results are given for `O=C(OC1CCOC1)N1CCC[C@H](Nc2nc(-c3c[nH]c4ncc(Cl)cc34)ncc2F)C1` (stereo partly drawn) [Compound 443]?
**A.** EC50 [1, 5]: < 5 µM; IC50 [2, 6]: < 5 µM

**Q.** `CC1(C(=O)N2CCC[C@H](Nc3nc(-c4c[nH]c5ncc(Cl)cc45)ncc3F)C2)COC1` [Compound 444] was tested. Which EC50 [1, 5] did it give?
**A.** < 5 µM

**Q.** What about the IC50 [2, 6] of the same molecule?
**A.** < 5 µM

**Q.** Which results are given for `COC(=O)NC1CCCC(Nc2nc(-c3c[nH]c4ncc(Cl)cc34)ncc2F)C1` (stereo not drawn) [Compound 453]?
**A.** EC50 [1, 3]: < 5 µM; IC50 [2, 4]: < 5 µM

**Q.** `CS(=O)(=O)NC1CCCC(Nc2nc(-c3c[nH]c4ncc(Cl)cc34)ncc2F)C1` (stereo not drawn) [Compound 454, N-[3-[[2-(5-chloro-1H-pyrrolo[2,3-b]pyridin-3-yl)-5-fluoro-pyrimidin-4-yl]amino]cyclohexyl]methanesulfonamide] was tested. Which EC50 [1, 5] did it give?
**A.** < 5 µM

**Q.** What about the IC50 [2, 6] of the same molecule?
**A.** < 5 µM

**Q.** `CCN1CCC[C@H](Nc2nc(-c3c[nH]c4ncc(Cl)cc34)ncc2F)C1=O` [Compound 460] was tested. Which EC50 [1, 5] did it give?
**A.** < 5 µM

**Q.** And the IC50 [2, 6]?
**A.** < 5 µM

**Q.** For `CN1CCCC[C@H](Nc2nc(-c3c[nH]c4ncc(Cl)cc34)ncc2F)C1=O` [Compound 461], which EC50 [1, 5] is on record?
**A.** < 5 µM

**Q.** What about the IC50 [2, 6] of the same molecule?
**A.** < 5 µM

**Q.** Which results are given for `CCN1CCCC[C@H](Nc2nc(-c3c[nH]c4ncc(Cl)cc34)ncc2F)C1=O` [Compound 462]?
**A.** EC50 [1, 5]: < 5 µM; IC50 [2, 6]: 5 to 20 µM

**Q.** `CCCS(=O)(=O)N1CCCC(Nc2ccnc(-c3c[nH]c4ncc(Cl)cc34)n2)C1` (stereo not drawn) [Compound 464] was tested. Which EC50 [1, 3] did it give?
**A.** < 5 µM

**Q.** What about the IC50 [2, 4] of the same molecule?
**A.** < 5 µM

**Q.** What does the source list for `CC(=O)N1CCCC(CNc2ccnc(-c3c[nH]c4ncc(Cl)cc34)n2)C1` (stereo not drawn) [Compound 490]?
**A.** EC50 ([1]; MDCK cells infected with A/PR/8/34, replication of influenza virus (viral RNA, bDNA), class symbols, read-out: EC50 (mean all)): < 5 µM; IC50 ([2]; MDCK cells infected with A/PR/8/34, survival of infected cells, class symbols, read-out: IC50 (mean all)): < 5 µM

**Q.** How did the EC50 [1, 7] turn out when `COCCC(=O)N1CCC[C@H](CNc2ccnc(-c3c[nH]c4ncc(Cl)cc34)n2)C1` [Compound 493, (R)-1-(3-((2-(5-chloro-1H-pyrrolo[2,3-b]pyridin-3-yl)pyrimidin-4-ylamino)methyl)piperidin-1-yl)-3-methoxypropan-1-one] was run?
**A.** < 5 µM

**Q.** And the IC50 [2, 8]?
**A.** < 5 µM

**Q.** Which EC50 [1, 7] does the source give for `CC(=O)N1CCCC(Nc2nc(-c3c[nH]c4ncc(Cl)cc34)ncc2F)CC1` (stereo not drawn) [Compound 497, 1-(4-(2-(5-chloro-1H-pyrrolo[2,3-b]pyridin-3-yl)-5-fluoropyrimidin-4-ylamino)azepan-1-yl)ethanone] here?
**A.** < 5 µM

**Q.** And the IC50 [2, 8]?
**A.** < 5 µM

**Q.** `CN(C)C(=O)N1CCCC(Nc2nc(-c3c[nH]c4ncc(Cl)cc34)ncc2F)CC1` (stereo not drawn) [Compound 499, 4-(2-(5-chloro-1H-pyrrolo[2,3-b]pyridin-3-yl)-5-fluoropyrimidin-4-ylamino)-N,N-dimethylazepane-1-carboxamide] was tested. Which EC50 [1, 7] did it give?
**A.** < 5 µM

**Q.** What about the IC50 [2, 8] of the same molecule?
**A.** < 5 µM

**Q.** Which results are given for `O=C1NCCCC[C@@H]1Nc1ccnc(-c2c[nH]c3ncc(Cl)cc23)n1` [Compound 500]?
**A.** EC50 [1, 7]: < 5 µM; IC50 [2, 8]: < 5 µM

**Q.** For `O=C1NCCCC[C@@H]1Nc1nc(-c2c[nH]c3ncc(C(F)(F)F)cc23)ncc1F` [Compound 502, (S)-3-(5-fluoro-2-(5-(trifluoromethyl)-1H-pyrrolo[2,3-b]pyridin-3-yl)pyrimidin-4-ylamino)azepan-2-one], which EC50 [1, 7] is on record?
**A.** < 5 µM

**Q.** And the IC50 [2, 8]?
**A.** < 5 µM

**Q.** `CC1(C)CCC[C@H](Nc2nc(-c3c[nH]c4ncc(Cl)cc34)ncc2F)C(=O)N1` [Compound 504] was tested. Which EC50 [1, 7] did it give?
**A.** < 5 µM

**Q.** And the IC50 [2, 8]?
**A.** 5 to 20 µM

**Q.** For `CNC(=O)N1CCCC(Nc2nc(-c3c[nH]c4ncc(Cl)cc34)ncc2F)CC1` (stereo not drawn) [Compound 506, 4-(2-(5-chloro-1H-pyrrolo[2,3-b]pyridin-3-yl)-5-fluoropyrimidin-4-ylamino)-N-methylazepane-1-carboxamide], which EC50 [1, 7] is on record?
**A.** < 5 µM

**Q.** What about the IC50 [2, 8] of the same molecule?
**A.** < 5 µM

**Q.** `NC(=O)N1CCC[C@H](Nc2nc(-c3c[nH]c4ncc(Cl)cc34)ncc2F)C1` [Compound 507] was tested. Which EC50 [1, 7] did it give?
**A.** < 5 µM

**Q.** What about the IC50 [2, 8] of the same molecule?
**A.** < 5 µM

**Q.** `NC(=O)N1CCCC(Nc2nc(-c3c[nH]c4ncc(Cl)cc34)ncc2F)CC1` (stereo not drawn) [Compound 509, 4-(2-(5-chloro-1H-pyrrolo[2,3-b]pyridin-3-yl)-5-fluoropyrimidin-4-ylamino)azepane-1-carboxamide] was tested. Which EC50 [1, 7] did it give?
**A.** < 5 µM

**Q.** What about the IC50 [2, 8] of the same molecule?
**A.** < 5 µM

**Q.** Which EC50 [1, 7] does the source give for `NC(=O)N1CC(Nc2nc(-c3c[nH]c4ncc(Cl)cc34)ncc2F)C1` [Compound 512] here?
**A.** 5 to 10 µM

**Q.** And the IC50 [2, 8]?
**A.** > 20 µM

**Q.** With `O=C1NCCOCC1Nc1nc(-c2c[nH]c3ncc(Cl)cc23)ncc1F` (stereo not drawn) [Compound 513, 6-(2-(5-chloro-1H-pyrrolo[2,3-b]pyridin-3-yl)-5-fluoropyrimidin-4-ylamino)-1,4-oxazepan-5-one] as the molecule, how does the EC50 [1, 7] read?
**A.** < 5 µM

**Q.** And the IC50 [2, 8]?
**A.** 5 to 20 µM

**Q.** How did the EC50 [1, 7] turn out when `OC1CCCC(Nc2nc(-c3c[nH]c4ncc(Cl)cc34)ncc2F)C1` [Compound 524, (3S)-3-((2-(5-chloro-1H-pyrrolo[2,3-b]pyridin-3-yl)-5-fluoropyrimidin-4-ylamino)cyclohexanol] was run?
**A.** < 5 µM

**Q.** And the IC50 [2, 8]?
**A.** < 5 µM

**Q.** How did the EC50 [1, 7] turn out when `OCC(O)CN1CCCC(Nc2nc(-c3c[nH]c4ncc(Cl)cc34)ncc2F)C1` [Compound 525, 3-((S)-3-((2-(5-chloro-1H-pyrrolo[2,3-b]pyridin-3-yl)-5-fluoropyrimidin-4-ylamino)piperidin-1-yl)propane-1,2-diol] was run?
**A.** < 5 µM

**Q.** What about the IC50 [2, 8] of the same molecule?
**A.** < 5 µM
